Experimental data reported in ChEMBL document CHEMBL5113434, “Discovery of novel Thieno[2,3-d]imidazole derivatives as agonists of human STING for antitumor immunotherapy using systemic administration” (Eur J Med Chem, 2022).
One block for each compound: values may come before it. Calls of active or inactive are those of the source. No cut-off for these calls is given here.

Tests used:
[1] = target: T1, Stimulator of interferon genes protein (Homo sapiens, UniProt Q86WV6); assay: Agonist activity at STING in human THP1-Dual cells assessed as fold change in ISG activation at 10 uM incubated for 24 hrs by Quanti-luc reagent based assay relative to control; type: cell-based; conditions: filed as agonist
T1 sequence (Q86WV6 whole entry): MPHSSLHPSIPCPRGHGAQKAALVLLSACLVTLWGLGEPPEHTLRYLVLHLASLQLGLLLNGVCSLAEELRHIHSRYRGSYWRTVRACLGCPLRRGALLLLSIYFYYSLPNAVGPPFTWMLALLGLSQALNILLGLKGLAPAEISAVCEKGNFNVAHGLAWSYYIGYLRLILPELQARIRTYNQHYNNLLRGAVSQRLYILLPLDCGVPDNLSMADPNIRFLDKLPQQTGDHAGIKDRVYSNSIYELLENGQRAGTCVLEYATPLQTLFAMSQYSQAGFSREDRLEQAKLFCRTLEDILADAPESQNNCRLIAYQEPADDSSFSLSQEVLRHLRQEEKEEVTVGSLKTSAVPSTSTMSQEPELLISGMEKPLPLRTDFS

[2] = target: T2, Stimulator of interferon genes protein (Mus musculus) (UniProt Q3TBT3); assay: Agonist activity at STING in mouse RAW-Lucia ISG cells assessed as fold change in ISG activation at 50 uM incubated for 24 hrs by Quanti-luc reagent based assay relative to control; type: cell-based; conditions: filed as agonist
T2 sequence (whole entry): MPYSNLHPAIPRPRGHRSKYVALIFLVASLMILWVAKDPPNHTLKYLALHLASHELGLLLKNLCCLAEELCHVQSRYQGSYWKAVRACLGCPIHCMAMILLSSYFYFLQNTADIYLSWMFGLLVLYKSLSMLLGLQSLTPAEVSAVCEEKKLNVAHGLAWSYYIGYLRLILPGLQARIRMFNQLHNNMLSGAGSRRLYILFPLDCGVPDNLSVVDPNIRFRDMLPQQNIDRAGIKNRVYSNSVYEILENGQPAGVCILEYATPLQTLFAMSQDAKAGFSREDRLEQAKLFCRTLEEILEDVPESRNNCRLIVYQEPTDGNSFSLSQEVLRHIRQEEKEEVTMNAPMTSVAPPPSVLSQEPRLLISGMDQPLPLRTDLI

[3] = target: T3, Stimulator of interferon genes protein (Mus musculus, UniProt Q3TBT3); assay: Agonist activity at STING in mouse RAW-Lucia ISG cells assessed as ISG activation incubated for 24 hrs by Quanti-luc reagent based assay; type: cell-based
T3 sequence (Q3TBT3 whole entry): T2 sequence (whole entry)

[4] = target: T1, Stimulator of interferon genes protein; assay: Agonist activity at STING in human THP1-Dual cells assessed as ISG activation incubated for 24 hrs by Quanti-luc reagent based assay; type: cell-based
[5] = target: T1, Stimulator of interferon genes protein; assay: Agonist activity at STING (unknown origin)
[6] = target: T1, Stimulator of interferon genes protein; assay: Agonist activity at STING in human THP-1 cells; type: cell-based
[7] = Agonist activity at human STING R232H mutant
[8] = target: T1, Stimulator of interferon genes protein; assay: Activation of STING pathway in human THP1-Dual cells assessed as increase in IFNbeta expression level at 0.01 to 1 uM measured for 24 hrs by chemiluminescence based analysis; type: cell-based; conditions: filed as activator, dose 0.01-1 µM
[9] = target: T1, Stimulator of interferon genes protein; assay: Activation of STING pathway in human THP1-Dual cells assessed as increase in IP-10 expression level at 0.01 to 1 uM measured for 24 hrs by chemiluminescence based analysis; type: cell-based; conditions: filed as activator, dose 0.01-1 µM
[10] = target: T1, Stimulator of interferon genes protein; assay: Activation of STING pathway in human 293T-Dual hSTING-H232 cells assessed as increase in ISG expression level measured for 24 hrs by SEAP reporter based Quanti-luc assay; type: cell-based; conditions: filed as activator, dose 0.01-1 µM, DDE = dose-dependent effect
[11] = target: T1, Stimulator of interferon genes protein; assay: Activation of STING pathway in human THP1-Dual cells assessed as increase in IFNbeta expression level at 0.1 uM measured for 24 hrs by chemiluminescence based analysis; type: cell-based; conditions: filed as activator
[12] = target: T1, Stimulator of interferon genes protein; assay: Activation of STING pathway in human THP1-Dual cells assessed as increase in IP-10 expression level at 0.1 uM measured for 24 hrs by chemiluminescence based analysis; type: cell-based; conditions: filed as activator
[13] = target: T1, Stimulator of interferon genes protein; assay: Activation of STING pathway in human 293T-Dual hSTING-H232 cells assessed as increase in IFNbeta expression level measured for 24 hrs by SEAP reporter based Quanti-luc assay; type: cell-based; conditions: filed as activator, dose 0.01-1 µM, DDE = dose-dependent effect
[14] = target: T1, Stimulator of interferon genes protein; assay: Inhibition of human wild type STING

SMILES: CCn1nc(C)cc1C(=O)Nc1nc2cc(C(N)=O)sc2n1CCCCn1c(NC(=O)c2cc(C)nn2CC)nc2cc(C(N)=O)sc21
- fold change (FC) [1]: 1.15
- fold change (FC) [2]: 2.63

SMILES: CCn1nc(C)cc1C(=O)Nc1nc2cc(C(N)=O)sc2n1C/C=C/Cn1c(NC(=O)c2cc(C)nn2CC)nc2cc(C(N)=O)cc(OC(C)C)c21
- fold change (FC) [1]: 60.4
- EC50 [3]: 63700 nM
- EC50 [4]: 5820 nM
- fold change (FC) [2]: 13.5

SMILES: Nc1ncnc2c1ncn2[C@@H]1O[C@@H]2COP(=O)(O)O[C@H]3[C@@H](O)[C@H](n4cnc5c(N)ncnc54)O[C@@H]3COP(=O)(O)O[C@H]2[C@H]1O
- EC50 [5]: 51.3 nM

SMILES: CCn1nc(C)cc1C(=O)/N=c1\[nH]c2cc(C(N)=O)cc(OC)c2n1C/C=C/Cn1/c(=N/C(=O)c2cc(C)nn2CC)[nH]c2cc(C(N)=O)cc(OCCCN3CCOCC3)c21
- EC50 [7]: 200 nM
- Activity [8]: Active
- Activity [9]: Active
- Activity [10]: Dde
- Activity [11]: Active
- Activity [12]: Active
- Activity [13]: Dde

Second part, the compound after the results:

- fold change (FC) [1]: 2.32
- fold change (FC) [2]: 1.18
SMILES: CCn1nc(C)cc1C(=O)Nc1nc2cc(NC(C)=O)ccc2n1CCCCn1c(NC(=O)c2cc(C)nn2CC)nc2cc(C(N)=O)cc(OCCCN3CCOCC3)c21

- fold change (FC) [1]: 8.42
- fold change (FC) [2]: 0.64
SMILES: CCn1nc(C)cc1C(=O)Nc1nc2cc(C(N)=O)sc2n1CCCCn1c(NC(=O)c2cc(C)nn2CC)nc2cc(C(N)=O)cc(OCCCN3CCOCC3)c21

- EC50 [6]: 2100 nM
SMILES: O=C(Nc1cc(F)c(F)cc1C(=O)O)c1ccc(N2C=CNC2)nn1

- IC50 [14]: 1400 nM
SMILES: CCn1nc(C)cc1C(=O)/N=c1\[nH]c2cc(C(N)=O)ccc2n1C[C@@H](O)c1ccccc1

- fold change (FC) [1]: 1.15
- fold change (FC) [2]: 1
SMILES: CCn1nc(C)cc1C(=O)Nc1nc2sc(C(N)=O)cc2n1CCCCn1c(NC(=O)c2cc(C)nn2CC)nc2cc(C(N)=O)cc(OCCCN3CCOCC3)c21
